Calls of active or inactive are those of the source. The rule behind the calls is not given here.
target: Induced myeloid leukemia cell differentiation protein Mcl-1 (Homo sapiens) (UniProt Q07820); test: Mcl-1/Bim interaction regulators – biochemical, bead-based flow cytometry, multiplexed, human, dose response (AID 1329); settings: Bim peptide-Mcl-1 binding, MCF
Sequence (Q07820 whole entry, looked up): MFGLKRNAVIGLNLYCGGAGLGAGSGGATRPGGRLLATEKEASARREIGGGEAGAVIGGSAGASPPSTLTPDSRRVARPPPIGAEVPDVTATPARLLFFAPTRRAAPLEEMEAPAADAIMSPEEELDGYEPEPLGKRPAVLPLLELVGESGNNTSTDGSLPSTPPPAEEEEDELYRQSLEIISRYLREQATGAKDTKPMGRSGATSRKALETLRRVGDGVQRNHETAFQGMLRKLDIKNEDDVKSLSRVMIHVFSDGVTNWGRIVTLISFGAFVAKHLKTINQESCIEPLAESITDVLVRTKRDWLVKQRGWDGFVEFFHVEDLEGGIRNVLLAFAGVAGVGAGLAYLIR

SMILES | percent span
CN(C)c1ccc(C(=O)/C=C/c2ccc(Br)cc2)cc1 | inactive
CS(=O)(=O)NN1C(=O)c2ccccc2NC1c1cccc2cccnc12 (configuration not stated) | inactive
CCOC(=O)C1(Cc2cccc(OC)c2)CCN(Cc2cccc(OC)c2OC)CC1 | inactive
COc1ccccc1Cn1nnc2c(=O)[nH]c(C3CCN(C(=O)c4ccc(C)cc4)CC3)nc21 | inactive
Cc1ccc(-c2c3c([nH]c(=S)c2C#N)CCCC3)o1 | inactive
Cc1[nH]c2ccccc2c1C(=O)COC(=O)c1c(-c2c(F)cccc2Cl)noc1C | inactive
CN(CCc1ccccn1)C(=O)CCC1CCCN(C(=O)NC2CCCCC2)C1 (configuration not stated) | inactive
Cn1c(N)c(C(=O)COC(=O)c2cc(-c3ccco3)nc3ccccc23)c(=O)n(C)c1=O | inactive
O=C(O)c1ccc(NC2=C/C(=N/S(=O)(=O)c3ccccc3)c3ccccc3C2=O)cc1 | inactive
CCOC(=O)c1sc(N)c(C(=O)Nc2ccccc2OC)c1C | inactive
COc1cc(/C=C2/NC(=O)N(Cc3ccccc3F)C2=O)cc(OC)c1O | inactive
COc1cc(C2Nc3cccc4cccc(c34)N2)cc(OC)c1O | inactive
COc1ccc(N2C(=O)/C(=C/c3cccs3)NC2=S)cc1 | inactive
CCOc1ccc(NCc2ccccc2OCc2cccc(F)c2)cc1 | inactive
Nc1ccc(-c2cn3cccnc3n2)cc1 | inactive
O=C(Nc1nccs1)c1ccc(COc2ccc(F)cc2)o1 | inactive
O=C(c1ccccc1NS(=O)(=O)c1ccc(Br)s1)N1CCCC1 | inactive
O=C(C1=NN[C@@H]2C(=O)N(c3cccc(F)c3)C(=O)[C@H]12)c1ccc2ccccc2n1 | inactive
CC(NC(=O)Nc1ccccn1)N1C(=O)C2C3C=CC(C3)C2C1=O (configuration not stated) | inactive
COc1ccc2nc(-c3ccco3)c(-c3ccco3)nc2c1 | inactive
C/C(=N\NC(=O)COc1ccc(C#N)cc1)c1ccccc1OC(F)F | inactive
CCc1ccc(NC(=O)CC2NCCNC2=O)cc1 (configuration not stated) | inactive
Nc1ccc(N2CCCCCC2)cc1 | inactive
CCc1cccc(NC(=O)COc2ccccc2)c1 | inactive
CCOc1cc(/C=N/NC(=O)c2cccs2)cc([N+](=O)[O-])c1O | inactive
COc1ccccc1-n1c(-c2ccc(Cl)cc2)c[nH]c1=S | inactive

SMILES | percent span
CN1CCN(c2ccc(N)cc2)CC1 | inactive
C#CCOCCOCCOCCNc1nc(N2CCN(C(=O)[C@H](CCCCN)n3cc(CCCC)nn3)CC2)nc(N2CCN(C(=O)[C@H](Cc3ccc(O)cc3)n3cc(CCO)nn3)CC2)n1 | inactive
CCCCN(C(=O)CCC(=O)Nc1cc(C)on1)C(C(=O)NC(C)(C)C)c1cccc(OC)c1OC (configuration not stated) | inactive
COc1ccc(C(=O)Nc2ccc(C(=O)OCC(=O)c3cccc4ccccc34)cc2)cc1 | inactive
Cc1cc(C)nc(/N=c2/ssnc2Cl)c1 | inactive
COc1ccc(C)cc1Nc1ccc(C(=O)O)cc1[N+](=O)[O-] | inactive
Cc1cccc(NC(=S)N2CCn3cccc3C2c2cccnc2)c1 (configuration not stated) | inactive
COc1ccc(N2C(=O)C(Cl)=C(Nc3ccccc3O)C2=O)cc1 | inactive
CC(C)CNC(=O)c1cccc(NC(=O)c2ccc(Cl)c([N+](=O)[O-])c2)c1 | inactive
CC1(C)CC(=O)C(C=NCCN2CCN(CCc3ccccc3)CC2)=C(O)C1 | inactive
Cc1ccc(NC(=O)CSc2nc3ccccc3c(=O)n2CCCN2CCCCC2)cc1Cl | inactive
Cc1cc(N2CCN(C)CC2)nc2ccc(NC(=S)N3CCN(c4cccc(Cl)c4)CC3)cc12 | inactive
CC1Nc2ccccc2C(=O)N1NS(C)(=O)=O (configuration not stated) | inactive
CC(C)(C)c1nc(NCCN2CCOCC2)c2nnn(Cc3ccccc3Cl)c2n1 | inactive
Cc1ccc(-c2cc(C(=O)Nc3ccccc3C)c3ccccc3n2)o1 | inactive
Cc1ccc(Nc2nc(-c3c(C)nc4ncccn34)cs2)cc1 | inactive
O=[N+]([O-])c1ccc(-c2cn(-c3ccc(Cl)cc3)c(=S)[nH]2)cc1 | inactive
O=C(COc1ccc(Br)cc1CNC1CCCCC1)NCCc1ccccc1 | inactive
COc1cc(/C=C2\SC(=S)NC2=O)ccc1OS(=O)(=O)c1ccccc1 | inactive
Cc1cc(C)c2nc3nc(C)c(C)cc3c(N)c2c1 | inactive
CN1N=C(C(=O)N2CCCC(C(=O)c3cccc(C(F)(F)F)c3)C2)CCC1=O (configuration not stated) | inactive
CC(C(=O)Nc1cc([N+](=O)[O-])ccc1Cl)N1CCN(c2ccc(O)cc2)CC1 (configuration not stated) | inactive
CCOc1cccc(CNc2ccc(O)cc2)c1OCc1ccccc1Cl | inactive
O=C(COC(=O)CCCN=C1NS(=O)(=O)c2ccccc21)NC(=O)NC1CCCC1 | inactive
CN(C)C(=O)N1CCC(C(=O)NC2CCCCCCC2)CC1 | inactive
CC1(C)CC(NC(=O)COc2ccc([N+](=O)[O-])cc2)CC(C)(C)N1 | inactive

SMILES | percent span
C=CCSc1nc(N)c2c(C)c(C)sc2n1 | inactive
CCn1cc(C=C2C(=O)c3ccccc3C2=O)c2ccccc21 | inactive
O=C1NC(=S)S/C1=C/c1ccc(N2CCOCC2)o1 | inactive
N/C(Cc1ccc(Cl)c(Cl)c1)=N\OC(=O)c1cccs1 | inactive
CN(C)S(=O)(=O)N(CC(=O)Nc1ccccc1C(F)(F)F)c1ccccc1 | inactive
COC(=O)Cc1cc(=O)[nH]c(Nc2nc3ccccc3o2)n1 | inactive
O=c1nc2c(O)cccn2c2c1c(=O)[nH]c1ccccc12 | inactive
COc1ccc(S(=O)(=O)NCCSc2ccccc2)cc1OC | inactive
COc1cc(C2Nc3cccc4cccc(c34)N2)ccc1OC(C)=O | inactive
CCOc1ccc(C2=Nn3c(nnc3-c3ccccn3)SC2)cc1 | inactive
CS(=O)(=O)NN1C(=O)c2ccccc2NC1c1cccs1 (configuration not stated) | inactive
CNc1ccc(Br)cc(C(=O)/C=C/c2cc(OC)ccc2OC)c1=O | inactive
CC1=C2C(CCS2(=O)=O)CC2(C1)C(=O)OC(C)(C)OC2=O (configuration not stated) | inactive
CCN1CCN(c2cc(C)c3cc(NC(=S)N4CCCCC4)ccc3n2)CC1 | inactive
CCOc1ccc(N2C(=O)C(Cl)=C(Nc3ccccc3O)C2=O)cc1 | inactive
CCSc1nnc(NC(=O)c2c(-c3ccccc3Cl)noc2C)s1 | inactive
Cc1ccc(-c2ccc(/C=C3\SC(N4CCOCC4)=NC3=O)o2)cc1 | inactive
O=C(COc1ccccc1)N1CCN(c2ncnc3c2cnn3-c2ccccc2)CC1 | inactive
COc1ccccc1Nc1nc(-c2c(C)nc3ncccn23)cs1 | inactive
N#Cc1cccc(N=c2ssnc2Cl)c1 | inactive
CC(C)(C)OC(=O)N1CCN(C(=O)[C@H](Cc2ccc(O)cc2)n2cc(CCO)nn2)CC1 | inactive
CC1CCN(C2(O)C(=O)Nc3ccc(Br)cc32)CC1 (configuration not stated) | inactive
Cc1ccc(Nc2nc(CSc3nnc(-c4cccnc4)n3-c3ccccc3C)cs2)cc1 | inactive
CN(Cc1ccccc1)C(=O)c1[nH]cnc1C(=O)N[C@@H](CCCCNC(=O)OC(C)(C)C)C(=O)OC(C)(C)C | inactive
Cn1c(N)c(C(=O)COC(=O)c2cncc(Br)c2)c(=O)n(C)c1=O | inactive
COc1ccc(NC(=O)c2ccc3c(c2)NC(=O)CS3)cc1S(=O)(=O)Nc1ccc(Br)cc1 | inactive

SMILES | percent span
COc1c(C)cc(Br)cc1C(=O)Nc1ccc(S(N)(=O)=O)cc1 | inactive
CCOc1cc(/C=C2/N=C(C)C(C(=O)OC)=C2O)ccc1O | inactive
Cc1cccc(C(=O)N2CCC(c3nc(-c4ccc(S(=O)(=O)N5CCOCC5)cc4)no3)CC2)c1 | inactive
Cc1ccc(/C=C2/NC(=O)N(Cc3ccccc3)C2=O)o1 | inactive
Cc1ccc(-c2cc(-c3ccc(F)cc3)nc(N)c2C#N)o1 | inactive
CN(C)c1cccc(NC(=O)C2(C)CC2(Cl)Cl)c1 (configuration not stated) | inactive
Cc1sc2nc(C(C)C)nc(SCC(=O)N3c4ccccc4CC3C)c2c1C (configuration not stated) | inactive
O=C(N/N=C/c1ccc(-c2ccccc2[N+](=O)[O-])o1)c1cncc(Br)c1 | inactive
O=C(NC1=C(Nc2ccc(F)cc2)C(=O)c2ccccc2C1=O)c1ccc(Cl)cc1 | inactive
Cc1cccc(N2C(S)=C(C#N)C(=O)NC2c2cccs2)c1 (configuration not stated) | inactive
COCCN=c1scc(-c2ccco2)n1/N=C/c1ccc(O)c(O)c1O | inactive
COCCn1nnnc1CN(Cc1ccco1)Cc1cc2cc3c(cc2[nH]c1=O)OCO3 | inactive
O=C1Nc2ccc([N+](=O)[O-])cc2OC1CCN1CCN(Cc2ccc3c(c2)OCO3)CC1 (configuration not stated) | inactive
O=C(/C=C/c1ccc(-c2ccccc2)o1)c1ccccc1 | inactive
Cc1ccc(C2=N/C(=C/c3cccs3)C(=O)N2Nc2ccccc2)cc1 | inactive
CCCCCCc1cc2cc(C(=O)Nc3ccccc3)c(=O)oc2cc1O | inactive
CNCc1ccccc1Sc1cc(O)ccc1O | inactive
COc1cc(/C=C2\S/C(=N/S(=O)(=O)c3ccccc3)NC2=O)c([N+](=O)[O-])cc1OC | inactive
Cc1cc(C)nc(SCc2cc(=O)c(OC(=O)c3cccc([N+](=O)[O-])c3)co2)n1 | inactive
Clc1ccc2c(N/N=C/c3cccc(Br)c3)ccnc2c1 | inactive
CC1CC2=C(NC(=S)NC2c2cccc(F)c2)/C(=C/c2cccc(F)c2)C1 (configuration not stated) | inactive
CCOc1c(Cl)cc(CNc2ccc(N3CCCC3)cc2)cc1OC | inactive
COC(=O)c1cc(OC)c(OC)cc1NC(=O)Nc1cccc(C(C)=O)c1 | inactive
CN1CCN(c2ccccc2N)CC1 | inactive
